{"source": "patent US20180221336A1", "about": "“DOSE SPARING KETOROLAC FORMULATIONS AND METHODS AND DEVICES FOR USE WITH SAME” (SteadyMed, Ltd., priority 2017, published 2018)", "key": {"[1]": {"assay": "Simulation of plasma Ketorolac concentrations with the MMSPK population pharmacokinetic model (NONMEM)", "parameters": "species or system human", "details": "population PK model parameter estimate", "text": "A modified version of the Mandema-Stanski published model for Ketorolac (termed the Modified Mandema-Stanski PK model, or the MMSPK Model) was developed in steps; a base model development step for description of structural components of the model followed by a covariate analysis. For the latter the base model output was used to conduct a graphical evaluation of the covariates at first. A full model including all relevant covariate effects (e.g. each covariate-parameter relationship which was significant during single covariate model testing was included in the full model) was then developed. A final model was chosen by retaining only the statistically significant covariate effects. The parameters in the population models were estimated using the NONMEM software program (version 7.3). The stochastic approximation estimation method (SAEM) was used for estimation. A visual predictive check (VPC) was conducted for the model using all data.\nSimulations: Once the model was qualified, stochastic simulations were conducted to assess the expected range of concentrations following several dose regimens. […]\nFor each simulation scenario 800 subjects were simulated. […] The simulation outputs were assessed graphically and summaries of key metrics (see Table 1) were summarized and tabled. […]"}, "[2]": {"details": "oral KT; literature value used in simulations; cited from earlier work"}, "clinical": {"assay": "clinical", "details": "human, plasma", "experimental": "(§1) Twelve (12) subjects were randomized to receive a total daily dose of 120 mg Ketorolac tromethamine (Ketorolac Tromethamine Injection, USP 30 mg/mL, manufactured by Hospira Inc., Lot No.: 51600LL) administered as either: (Treatment A) one continuous SC infusion of 4 mL to the abdomen over 24 hours at a steady rate of 5 mg/hr (0.167 mL/hr), or (Treatment B) four IM bolus injections of 30 mg (1 mL) to alternating gluteus maximus muscle every 6 hours. […] The treatments were separated by a washout period of ≥4 days. The total daily dose of 120 mg Ketorolac tromethamine administered as 4×30 mg/mL IM bolus injections is a recommended treatment for subjects under 65 years of age according to the product labeling.\n(§2) Blood samples for the determination of plasma Ketorolac following continuous SC infusion (Treatment A) were collected at the following time points: pre-dose (0 hour), 0.25, 0.5, 1, 1.5, 2, 4, 6, 8, 10, 12, 14, 16, 18, 20, 22, 23, 24 (2 blood samples were collected at the 24 hour time point; 1 immediately prior to the end of infusion and 1 immediately following end of infusion), 24.167, 24.33, 24.5, 25, 26, 28, 30, 32, 36, and at 48 hours post-dose. The time for post-dose blood collection are expressed relative to the start of infusion.\n(§3) Blood samples for the determination of plasma Ketorolac following IM injections (Treatment B) were collected at the following time points: pre-dose (0 hour), 0.167, 0.25, 0.5, 0.75, 1, 1.25, 1.5, 2, 3, 4, 6 (pre-dose), 6.25, 6.5, 6.75, 7, 8, 10, 12 (pre-dose), 12.25, 12.75, 13, 14, 16, 18 (pre-dose), 18.25, 18.5, 18.75, 19, 20, 22, 24, 28, 32, and at 48 hours post-dose. The time for post-dose blood collection are expressed relative to the first IM injection.\n(§4) Ketorolac plasma concentrations were determined using a validated liquid chromatographic tandem mass spectrometry (LC-MS/MS) method, with a lower limit of quantitation (LLOQ) of 10.0 ng/mL9. The validated plasma Ketorolac concentration range was 10.0 to 5000 ng/mL. Assay performance was monitored using quality control (QC) samples at concentrations of 30.0 ng/mL, 200 ng/mL, and 3800 ng/mL; the % CV for the QCs ranged from 1.3% to 15.1% and accuracy was 91.6-102.5%.\n(§5) Non-compartmental PK parameters were calculated from Ketorolac concentrations-time data in plasma using Phoenix® WinNonlin® Professional (Versions 6.3; Pharsight, Mountain View, Calif.). […] AUC0-inf was calculated as the sum AUC0-last plus the ratio of the last measurable plasma concentration (Clast) to kel; AUC0-last, AUC0-24, and AUCtau were calculated by the linear trapezoidal summation method; AUCext was calculated as 1-AUC0-last/AUC0-inf multiplied by 100, Cmax, Ctrough, tmax were reported as observed values; Cavg was calculated as AUCtau divided by 6 hours for the IM administration; Css was calculated as the average of the concentrations from the time steady-state was reached until the end of SC infusion; CL/F was calculated as dose/AUC0-inf (for SC administration) or dose/AUCtau (for IM administration); Vz/F was calculated as (CL/F)/kel); kel was calculated by linear least-square regression analysis using the maximum number of points in the terminal log-linear phase (using 3 or more non-zero plasma concentrations); t½ was calculated as ln(2)/kel.\n(§6) Statistical analyses were conducted to compare Ketorolac AUC0 24, AUC0 last, and Cmax following continuous SC infusion and repeat IM bolus injections. A SAS® mixed model procedure was performed on the natural log (ln)-transformed PK parameters."}, "[3]": {"assay": "Safety assessments (adverse events, vital signs, ECG, injection/infusion site) in the crossover study in healthy subjects", "experimental": "Twelve (12) subjects were randomized to receive a total daily dose of 120 mg Ketorolac tromethamine (Ketorolac Tromethamine Injection, USP 30 mg/mL, manufactured by Hospira Inc., Lot No.: 51600LL) administered as either: (Treatment A) one continuous SC infusion of 4 mL to the abdomen over 24 hours at a steady rate of 5 mg/hr (0.167 mL/hr), or (Treatment B) four IM bolus injections of 30 mg (1 mL) to alternating gluteus maximus muscle every 6 hours. For the continuous SC infusion, the MedFusion 3500 syringe pump was assembled with Animas Inset Infusion Set 23 inch 6 mm 10/box Grey (100-182-00), B-D Luer-Lok Syringe 5 mL and B-D 20 G 1 inch needle (Becton Dickinson). The treatments were separated by a washout period of ≥4 days.\nAll subjects underwent pre-dose (each period) and post-study assessments including physical examinations, routine laboratory tests, vital signs, and 12-lead electrocardiograms (ECGs). Alcohol and drug screen were conducted before each dosing period. All subjects were between 19 and 55 years old with a body mass index (BMI) between 18.5 and 30.0 kg/m2. Subjects had to refrain from the use of any prescription medications including over-the-counter products, herbal products or vitamin supplement within 14 days of dosing."}, "[4]": {"details": "for plasma Ketorolac concentration (predose Ctrough), Geometric LSM: Treatment B four IM bolus injections every 6 hours", "experimental": "as §1, §2, §3, §4, §5, §6"}, "[5]": {"details": "Treatment A (Test, N = 11): continuous SC infusion over 24 hours"}, "[6]": {"details": "Treatment A versus Treatment B, 100 * (test/reference)"}, "[7]": {"details": "Treatment A: 120 mg continuous SC infusion over 24 hours, N = 11, geom. mean (geom. CV %)"}, "[8]": {"details": "Treatment A: 120 mg continuous SC infusion over 24 hours, N = 11, mean ± SD"}, "[9]": {"details": "Treatment A, individual spline (quadratic plateau) regression, N 11"}, "[10]": {"details": "Treatment A, individual spline (quadratic plateau) regression, N 11, listed as Ketorolac tromethamine"}, "[11]": {"details": "Treatment B (Reference, N = 12): four IM bolus injections of 30 mg every 6 hours"}}, "note": "Where two headings read alike, the source gives them in different places."}
{"smiles": "O=C(c1ccccc1)c1ccc2n1CCC2C(=O)O", "note": "(racemic) [Ketorolac, (±)-5-benzoyl-2,3-dihydro-1H-pyrrolizine-1-carboxylic acid, compound with 2-amino-2-(hydroxymethyl)-1,3-propanediol]", "values": [{"measurement": "CL estimate (MMSPK model)", "setting": "[1]", "result": 2.92, "unit": "L/h"}, {"measurement": "estimated Ka for IM absorption (MMSPK model)", "setting": "[1]", "result": 11.6, "unit": "h⁻¹"}, {"measurement": "Ka", "setting": "[2]", "result": 11, "unit": "h⁻¹"}, {"measurement": "absorption lag time", "setting": "[2]", "result": 0.2, "unit": "h"}, {"measurement": "half-life", "setting": "clinical; 120 mg", "result": "~7", "unit": "h"}, {"measurement": "AUC", "setting": "clinical; im, 30 mg", "result": 6810, "unit": "ng·h/mL"}, {"measurement": "AUC(0-t)", "setting": "clinical; im, 30 mg", "result": 23600, "unit": "ng·h/mL"}, {"measurement": "Cmax", "setting": "clinical; im, 30 mg", "result": 2240, "unit": "ng/mL"}, {"measurement": "Tmax", "setting": "clinical; im, 30 mg", "result": 9.25, "unit": "h"}, {"measurement": "Vd/F", "setting": "clinical; im, 30 mg", "result": "30.3 ± 7.69", "unit": "L"}, {"measurement": "half-life", "setting": "clinical; im, 30 mg", "result": "7.02 ± 1.44", "unit": "h"}, {"measurement": "AUC(0-inf)", "setting": "clinical; sc, 120 mg", "result": 29100, "unit": "ng·h/mL"}, {"measurement": "AUC(0-t)", "setting": "clinical; sc, 120 mg", "result": 21500, "unit": "ng·h/mL"}, {"measurement": "Cmax", "setting": "clinical; sc, 120 mg", "result": 1340, "unit": "ng/mL"}, {"measurement": "Tmax", "setting": "clinical; sc, 120 mg", "result": 23, "unit": "h"}, {"measurement": "Vd/F", "setting": "clinical; sc, 120 mg", "result": "29.1 ± 10.9", "unit": "L"}, {"measurement": "concentration at 4 h", "setting": "clinical; sc, 120 mg", "result": 617, "unit": "ng/mL"}, {"measurement": "concentration at 6 h", "setting": "clinical; sc, 120 mg", "result": 718, "unit": "ng/mL"}, {"measurement": "concentration at 8 h", "setting": "clinical; sc, 120 mg", "result": 838, "unit": "ng/mL"}, {"measurement": "concentration at 10 h", "setting": "clinical; sc, 120 mg", "result": 894, "unit": "ng/mL"}, {"measurement": "concentration at 12 h", "setting": "clinical; sc, 120 mg", "result": 946, "unit": "ng/mL"}, {"measurement": "concentration at 14 h", "setting": "clinical; sc, 120 mg", "result": 1020, "unit": "ng/mL"}, {"measurement": "concentration at 16 h", "setting": "clinical; sc, 120 mg", "result": 1050, "unit": "ng/mL"}, {"measurement": "concentration at 18 h", "setting": "clinical; sc, 120 mg", "result": 1160, "unit": "ng/mL"}, {"measurement": "concentration at 20 h", "setting": "clinical; sc, 120 mg", "result": 1210, "unit": "ng/mL"}, {"measurement": "concentration at 22 h", "setting": "clinical; sc, 120 mg", "result": 1200, "unit": "ng/mL"}, {"measurement": "concentration at 23 h", "setting": "clinical; sc, 120 mg", "result": 1230, "unit": "ng/mL"}, {"measurement": "concentration at 24 h", "setting": "clinical; sc, 120 mg", "result": 1170, "unit": "ng/mL"}, {"measurement": "half-life", "setting": "clinical; sc, 120 mg", "result": "6.93 ± 0.84", "unit": "h"}, {"measurement": "infusion site adverse event", "setting": "[3]; Treatment A, 13 minutes following completion of the 24-hour infusion, resolved in approximately 2 days, possibly related to study drug", "result": "One subject experienced mild infusion site pain"}, {"measurement": "injection site adverse event", "setting": "[3]; Treatment B, approximately 6.5 hours after the 4th IM injection, resolved in 15 days, not related to study drug", "result": "Another subject experienced mild injection site hemorrhage"}, {"measurement": "subjects experiencing TEAEs following each treatment arm", "setting": "[3]; each of Treatment A and Treatment B", "result": 2, "unit": "subjects"}, {"measurement": "safety and tolerability", "setting": "[3]; total dose of 120 mg via continuous SC infusion", "result": "safe and well tolerated"}, {"measurement": "vital sign, ECG, or injection/infusion site reaction results", "setting": "[3]; whole study", "result": "no clinically significant trends"}, {"measurement": "subjects experiencing TEAEs", "setting": "[3]; whole study, 12 subjects", "result": "4 (33%) subjects"}, {"measurement": "deaths or serious adverse events (SAEs)", "setting": "[3]; whole study, both treatments", "result": "no deaths or serious adverse events (SAEs)"}, {"measurement": "number of mild treatment emergent adverse events (TEAEs)", "setting": "[3]; whole study, both treatments", "result": 7}, {"measurement": "AUC0-24 Geometric LSM", "setting": "[4]; [5]", "result": 21510, "unit": "ng·h/mL"}, {"measurement": "AUC0-last Geometric LSM", "setting": "[4]; [5]", "result": 28260, "unit": "ng·h/mL"}, {"measurement": "overall Tss (time to steady-state)", "setting": "[4]; Treatment A SC infusion, Helmert contrast", "result": 18, "unit": "h"}, {"measurement": "overall exposure (AUC0-24 and AUC0-last), SC infusion compared with IM bolus injections", "setting": "[4]; Treatment A versus Treatment B", "result": "similar"}, {"measurement": "Cmax lower following continuous SC infusion compared to 4 IM bolus injections", "setting": "[4]; Treatment A versus Treatment B, 120 mg total daily dose", "result": 40, "unit": "%"}, {"measurement": "AUC0-24 Geometric Mean Ratio", "setting": "[4]; [6]", "result": 91.23, "unit": "%"}, {"measurement": "AUC0-last Geometric Mean Ratio", "setting": "[4]; [6]", "result": 101.53, "unit": "%"}, {"measurement": "Cmax—all Geometric Mean Ratio", "setting": "[4]; [6]", "result": 59.86, "unit": "%"}, {"measurement": "AUC0-last", "setting": "[4]; [7]", "result": "28.48 (30.9) μg * hr/mL"}, {"measurement": "Cmax—all", "setting": "[4]; [7]", "result": "1.344 (25.6) μg/mL"}, {"measurement": "AUC%extrap", "setting": "[4]; [8]", "result": "1.96 ± 1.2860", "unit": "%"}, {"measurement": "Css", "setting": "[4]; [8]", "result": "1238 ± 299.6", "unit": "ng/mL"}, {"measurement": "Kel", "setting": "[4]; Treatment A: 120 mg continuous SC infusion over 24 hours, mean ± SD", "result": "0.1014 ± 0.01213", "unit": "h⁻¹"}, {"measurement": "CL/F", "setting": "[4]; Treatment A: 120 mg continuous SC infusion over 24 hours, mean ± SD, listed as Ketorolac tromethamine", "result": "2.924 ± 0.9799", "unit": "L/h"}, {"measurement": "Plateau Concentration, Mean (SD)", "setting": "[4]; [9]", "result": "1053 (234.5) ng/mL"}, {"measurement": "Plateau Concentration, Median (Min, Max)", "setting": "[4]; [9]", "result": 1084, "unit": "ng/mL"}, {"measurement": "Time to Steady-State, Mean (SD)", "setting": "[4]; [9]", "result": "6.30 (4.17) hr"}, {"measurement": "Time to Steady-State, Median (Min, Max)", "setting": "[4]; [9]", "result": 4, "unit": "h"}, {"measurement": "Plateau Concentration, Median (Min, Max)", "setting": "[4]; [10]", "result": "1084 (572.4, 1426) ng/mL"}, {"measurement": "Time to Steady-State, Median (Min, Max)", "setting": "[4]; [10]", "result": "3.68 (1.98, 13.63) hr"}, {"measurement": "AUC0-24 Geometric LSM", "setting": "[4]; [11]", "result": 23580, "unit": "ng·h/mL"}, {"measurement": "AUC0-last Geometric LSM", "setting": "[4]; [11]", "result": 27830, "unit": "ng·h/mL"}, {"measurement": "plasma Ketorolac concentration (predose Ctrough), Geometric LSM", "setting": "[4]; Hour 6", "result": 302.545}, {"measurement": "plasma Ketorolac concentration (predose Ctrough), Geometric LSM", "setting": "[4]; Hour 12", "result": 368.216}, {"measurement": "plasma Ketorolac concentration (predose Ctrough), Geometric LSM", "setting": "[4]; Hour 18", "result": 432.393}, {"measurement": "plasma Ketorolac concentration (predose Ctrough), Geometric LSM", "setting": "[4]; Hour 24", "result": 564.178}, {"measurement": "Ctrough (LSM) at the highest", "setting": "[4]; following IM injections (Treatment B)", "result": 564.2, "unit": "ng/mL"}, {"measurement": "Individual Tss (spline method), range", "setting": "[4]; following SC infusion (Treatment A)", "result": "2.0 to 14", "unit": "h"}, {"measurement": "geometric LSM Css", "setting": "[4]; following SC infusion (Treatment A), Helmert contrast", "result": 1160, "unit": "ng/mL"}]}
